Reference: PubChem BioAssay AID256 (DTP/NCI, 2004)
Inconclusive results and toxic doses are left out. The calls were made as follows: active = survival T/C of 150% or more; inactive = T/C below 125% in these data.

System: CD2F1 mice, L1210 leukemia ip, survival T/C
Assay: NCI In Vivo Anticancer Drug Screen. Data for tumor model L1210 Leukemia (intraperitoneal) in CD2F1 (CDF1) mice
Conditions: endpoint: mean survival time, higher = longer survival
Summary of the method: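 Vehicle-treated tumor-bearing mice served as controls (C) for compound-treated mice (T). Reported figure is T divided by C.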

Measured: T/C

COc1ccc(NC(=O)Oc2c(Cl)cc(Cl)c3ccccc23)cc1
inactive: dose: 100.0 mg/kg/injection, schedule: Q04DX002 (ip), vehicle: saline with Tween-80 93 % of control | dose: 200.0 mg/kg/injection, schedule: Q04DX002 (ip), vehicle: saline with Tween-80 93 % of control | dose: 400.0 mg/kg/injection, schedule: Q04DX002 (ip), vehicle: saline with Tween-80 101 % of control

CCCCCCCCCCC(CCCCCCCCCC)C1CC(C)CCC1C (stereo unspecified)
inactive: dose: 100.0 mg/kg/injection, schedule: Q01DX001 (ip), vehicle: saline 94 % of control | dose: 200.0 mg/kg/injection, schedule: Q01DX001 (ip), vehicle: saline 97 % of control | dose: 400.0 mg/kg/injection, schedule: Q01DX001 (ip), vehicle: saline 97 % of control
